Residues, ends and D or L forms follow the SMILES beside them.

Here are results for four molecules from paper PMC11891075, “TRIM66-HP1γ remodels the chromatin through phase separation” (Biophysics Reports, 2025).

Assay [1] concerns condensates formed by mEGFP-TRIM66 and mCherry-HP1γ in U2OS cells. The experiment in a line: Live-cell imaging of condensates before and after 1,6-hexanediol. The class given is cell-based. The settings on record: 10% 1,6-hexanediol for 5 min, 10 independent fields from one cell dish. As for the experimental part: U2OS cells and HeLa cells were cultured in high-glucose DMEM supplemented with 10% fetal bovine serum and 1% penicillin-streptomycin at 37 °C in a humidified incubator containing 5% CO2. Following the manufacturer's instructions, cells were transfected with plasmid DNA using Lipofectamine 3000 (Thermo Fisher Scientific).
Genes encoding human TRIM66 or its constructs were cloned into the pmEGFP-C3 (Clontech) vector with an N-terminal mEGFP tag or the Flag vector with an N-terminal Flag tag. Genes encoding human HP1γ or HP1γ^L172A/W174A were cloned into the pcDNA3.1 vector with an N-terminal mCherry tag.
U2OS cells were cultured on 35-mm glass bottom dishes (Wuxi NEST Biotechnology Co., Ltd) coated with poly-D-lysine (Sigma-Aldrich). L-15 medium without phenol red (Thermo Fisher Scientific) was used during live-cell imaging to maintain a suitable environment for cell growth, and the temperature was kept at approximately 37 °C. Images were obtained with a Nikon Ti fluorescent inverted microscope with a 100× 1.4 NA objective; an XY Piezo Z stage (Applied Scientific Instrumentation); a spinning disk confocal unit (Yokogawa); and an electron multiplier CCD camera (Andor) controlled by IQ3 live-cell imaging software (Andor). Images collected with this system were 16-bit and consisted of 512 × 512 pixels, and the pixel size was 0.12 μm.

The next assay deals with T1, HP1γ-CSD^D131A (Homo sapiens, UniProt Q13185, D131A).
T1 construct: HP1γ CSD (110–176aa) and TRIM66 PxVxL motif peptide(856–868aa), mixed at a molar ratio of 1:1.2; His6 (N); made in house
T1 sequence (Q13185 110-176 D131A): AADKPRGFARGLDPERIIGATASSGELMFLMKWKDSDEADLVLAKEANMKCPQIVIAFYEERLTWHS
The experiment in a line: ITC, HP1γ-CSD D131A mutant. The class given is binding. Conditions: 20 °C, 20 mmol/L Tris-HCl, 150 mmol/L NaCl, pH 7.5, Fig. 2G. As for the experimental part: (§1) HP1γ_CSD (residues 110–176) was amplified by PCR from the human brain cDNA library and cloned into the pET-28a(+) expression vector (Novagen), contained an N-terminal 6× His tag and a tobacco etch virus (TEV) protease cleavage site. All mutants of HP1 were generated using a MutantBEST kit (Takara) and confirmed by DNA sequencing. All the proteins were expressed in Escherichia coli BL21 (DE3) cells (Novagen) cultured in LB medium at 37 °C to OD600 = 0.8, then shifted to 16 °C and induced with 0.5 mmol/L isopropyl β-D-1-thiogakactopyranoside (IPTG) for 24 h. Bacterial pellets were resuspended in Buffer A (20 mmol/L Tris-HCl, 500 mmol/L NaCl, pH 7.5) and lysed by sonication on ice. Then, soluble proteins were purified with a Ni^2+-chelating column (Cytiva Life Sciences) and a Superdex 75 column (Cytiva Life Sciences). After being cleaved by TEV protease overnight at 4 °C to remove the 6× His tag, the purified protein was concentrated to ∼10 mg/mL in Buffer B (20 mmol/L Tris-HCl, 150 mmol/L NaCl, pH 7.5) and stored at –80 °C. […]
(§2) Isothermal titration calorimetry (ITC) assays were performed using a MicroCal PEAQ-ITC calorimeter (Cytiva Life Sciences), and all experiments were carried out at 20 °C. […] The concentrations of the proteins were determined spectrophotometrically. […]
(ITC needs no label: the signal is the heat of the interaction.)

A further assay addresses T2, HP1γ-CSD (WT) (Homo sapiens, UniProt Q13185).
T2 construct: HP1γ CSD (110–176aa) and TRIM66 PxVxL motif peptide(856–868aa), mixed at a molar ratio of 1:1.2; made in house
The experiment in a line: Isothermal titration calorimetry (ITC), HP1γ-CSD wild type. The class given is binding. Conditions: 20 °C, 20 mmol/L Tris-HCl, 150 mmol/L NaCl, pH 7.5, Fig. 2F. As for the experimental part:
as §1, §2

The target in the next assay is T3, HP1γ-CSD^W174A (Homo sapiens, UniProt Q13185, W174A).
T3 construct: HP1γ CSD (110–176aa) and TRIM66 PxVxL motif peptide(856–868aa), mixed at a molar ratio of 1:1.2; His6 (N); made in house
T3 sequence (Q13185 110-176 W174A): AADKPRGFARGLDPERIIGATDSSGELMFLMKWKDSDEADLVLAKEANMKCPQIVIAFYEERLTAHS
In words: ITC, HP1γ-CSD W174A mutant. Conditions: 20 °C, 20 mmol/L Tris-HCl, 150 mmol/L NaCl, pH 7.5, Fig. 2F. The class given is binding. As for the experimental part:
as §1, §2

For another assay, the target named is T4, HP1γ-CSD^L172A (Homo sapiens, UniProt Q13185, L172A).
T4 construct: HP1γ CSD (110–176aa) and TRIM66 PxVxL motif peptide(856–868aa), mixed at a molar ratio of 1:1.2; His6 (N); made in house
T4 sequence (Q13185 110-176 L172A): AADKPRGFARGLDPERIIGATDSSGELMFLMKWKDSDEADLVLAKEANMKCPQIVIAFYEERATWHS
The experiment in a line: ITC, HP1γ-CSD L172A mutant. The class given is binding. Conditions: 20 °C, 20 mmol/L Tris-HCl, 150 mmol/L NaCl, pH 7.5, Fig. 2F. On the procedure: as §1, §2

A further assay has as its target T5, HP1γ-CSD^I165A (Homo sapiens, UniProt Q13185, I165A).
T5 construct: HP1γ CSD (110–176aa) and TRIM66 PxVxL motif peptide(856–868aa), mixed at a molar ratio of 1:1.2; His6 (N); made in house
In words: ITC, HP1γ-CSD I165A mutant (monomeric). The class given is binding. Conditions: 20 °C, 20 mmol/L Tris-HCl, 150 mmol/L NaCl, pH 7.5, Fig. 2F. As for the experimental part: as §1, §2

For a further assay, the target named is T6, HP1γ-CSD^R171A (Homo sapiens, UniProt Q13185, R171A).
T6 construct: HP1γ CSD (110–176aa) and TRIM66 PxVxL motif peptide(856–868aa), mixed at a molar ratio of 1:1.2; His6 (N); made in house
T6 sequence (Q13185 110-176 R171A): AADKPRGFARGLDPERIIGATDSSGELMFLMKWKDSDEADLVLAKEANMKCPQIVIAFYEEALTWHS
The experiment in a line: ITC, HP1γ-CSD R171A mutant. The class given is binding. The settings on record: 20 °C, 20 mmol/L Tris-HCl, 150 mmol/L NaCl, pH 7.5, Fig. 2G. As for the experimental part:
as §1, §2

In assay [2] the target is HP1γ chromo shadow domain (CSD), residues 110-176 (human) (UniProt Q13185). The experiment in a line: ITC; MicroCal PEAQ-ITC, 20 °C, Buffer B (20 mmol/L Tris-HCl, 150 mmol/L NaCl, pH 7.5); TRIM66 peptide titrated into HP1γ-CSD.
HP1γ chromo shadow domain (CSD), residues 110-176 (human), sequence (Q13185 110-176): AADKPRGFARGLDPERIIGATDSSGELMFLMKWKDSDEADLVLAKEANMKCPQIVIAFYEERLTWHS
For assay [3], the system named is HP1γ and nuclear extract (NE). The experiment in a line: GST pull-down assay. Conditions: glutathione-Sepharose, 20 mmol/L Tris, 150 mmol/L NaCl, 1 mmol/L DTT, pH 7.5, 6 h at 4 °C; SDS-PAGE and western blot. The class given is binding, human. As for the experimental part: The gene for human TRIM66 full-length (residues 1–1050) was purchased from Life Technologies. All the DNA fragments for the human TRIM66 (residues 820–909, 840–909) were amplified by PCR. The proteins were cloned into a modified pGEX4T-1vector with a GST tag and TEV protease cleavage site. The proteins were expressed in Escherichia coli BL21 (DE3) cells and induced with 0.5 mmol/L IPTG for 24 h at 16 °C. The protein was purified by GST column (Cytiva Life Sciences), followed by TEV protease cleavage and size-exclusion chromatography on a Hiload 16/60 Superdex 200 column (Cytiva Life Sciences).
Nuclear extracts (NEs) were prepared as described with slight modifications. HeLa cells (1 × 10^8 cells/mL) were suspended with 4 mL of Buffer A comprising 0.5 mmol/L EDTA, 2 mmol/L MgCl2, 0.1% (v/v) protease inhibitor (PI) (Nakalai Tesque, Japan), 2 mmol/L β-mercaptoethanol, 10 mmol/L Tris–HCl, pH 7.8, and centrifuged at 1500 g for 2 min at 4 °C. […] The concentrations of NEs were determined by DNA concentrations calculated from the absorbance at 260 nm.
The GST alone control, GST-tagged protein (TRIM66^820–909) was bound to glutathione-Sepharose beads (Cytiva Life Sciences) in a buffer of 20 mmol/L Tris, 200 mmol/L NaCl, and 1 mmol/L DTT at pH 7.5, and incubated at 4 °C for 4 h. […] The proteins captured by beads were eluted and analyzed by SDS-PAGE and western blot.

T2 sequence (Q13185 110-176): as above
T5 sequence (Q13185 110-176 I165A): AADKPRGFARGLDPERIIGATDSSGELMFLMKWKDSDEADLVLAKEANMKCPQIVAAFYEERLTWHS

Consider `OCCCCCCO` [1,6-hexanediol], for which the “effect on mEGFP-TRIM66 and mCherry-HP1γ condensates” value in assay [1] was “depolymerized and the fluorescence signal was evenly distributed in the entire nucleus”.
For `CC[C@H](C)[C@H](NC(=O)[C@H](CCCCN)NC(=O)[C@H](Cc1c[nH]cn1)NC(=O)[C@@H](N)CCC(=O)O)C(=O)N1CCC[C@H]1C(=O)N[C@@H](Cc1ccc(O)cc1)C(=O)N[C@H](C(=O)N[C@@H](CCCNC(=N)N)C(=O)N[C@@H](CC(C)C)C(=O)N[C@@H](CCC(=O)O)C(=O)N[C@@H](CCCNC(=N)N)C(=O)N[C@@H](CC(C)C)C(=O)N[C@@H](CCCCN)C(=O)O)C(C)C` [TRIM66^856-868] (H-EHKIPYVRLERLK-OH), the values for the Kd on HP1γ-CSD^D131A, at HP1γ-CSD (WT) and on HP1γ-CSD^R171A were 1360 ± 109 nM, 280 ± 20 nM and 2050 ± 38 nM, respectively. In addition, the KD entry at HP1γ-CSD^W174A, at HP1γ-CSD^L172A and at HP1γ-CSD^I165A was “No binding” throughout.
Turning to “TRIM66 PxVxL motif peptide (residues 856-868)”, in [2], the Kd (as a rule, the concentration at which binding is half-saturated) stood at 280 nM and the stoichiometry N (HP1γ-CSD per TRIM66 peptide (2:1)) came out at 2.

B1: GST-TRIM66^820-909: GST-tagged TRIM66 residues 820–909, which contains HP1γ-CSD binding motif (protein, UniProt O15016 820-909, looked up, fragment)
chain: NLISDSPQAMASLASDHPQAGPSLMSGHTQAVPSLATCPLQSIPPVSDMQPETGSSSSSGRTSGSLCPRDGADPSLENALCKMESEDSTR
modifications: GST tag
For the molecule B1, the “complex formation with HP1γ and NE (GST pull-down)” value in [3] is “can form stable complexes”.
